US7351744B2, “Naphthalene derivatives as termite repellents and toxicants” (Board of Supervisors of Louisiana State University and …, priority 2003, dated 2008)

How the values were obtained:
C. formosanus workers = experiment: Repellency, choice of treated and untreated filter paper in three-chambered containers; type: in vivo, Coptotermes formosanus; settings: preliminary study; 23 μg/cm^2
[1] = system: C. formosanus workers and soldiers; experiment: Treated filter paper as the sole food source; type: in vivo, Coptotermes formosanus; settings: for Percent survival: colonies C and WB combined
Protocol: To assay the effect of 2′-acetonaphthone on termites when added to a sole food source, acute and cumulative toxicities of 2′-acetonaphthone-treated filter paper (Whatman #2) and balsa wood (Ochroma lagopus Swartz) slices (2.3 cm×4.0 cm) were evaluated. Seven concentrations (0, 1, 10, 50, 100, 500, and 1000 mg/l) were prepared in 100 ml ethanol. Six filter papers and six wood slices were soaked in each concentration for 4 h; control filter papers and wood slices were soaked only in ethanol. After treatment, the food sources were kept overnight at ambient conditions for solvent evaporation. Eighty-four plastic containers (5.5 cm diameter×3.7 cm height) were provided with 22 g of wetted sand (20 g sand (fine blasting sand #4, Cement Products Inc., Baton Rouge, La.) mixed with 2 ml DDH2O). Then either a filter paper or a wood slice was separately placed to fit on the surface of the wetted sand and wetted with DDH2O (250 μl). Into each container, fifty workers and 20 soldiers were placed on the surface of the filter paper or wood slice. For each concentration and food sourse, three replicates received termites from colony C, and three replicates received termites from colony WB. The containers were covered and incubated for 10 days at 27.4° C. and 70% RH. Containers were monitored everytwo days to ensure suitable moisture. On days 1, 5 and 10, the number of living workers and soldiers were counted. An average percent survival was calculated for each treatment. (See Tables 2 and 3).

[2] = Longevity and volatility of the eleven chemicals; type: physicochemical; settings: among the eleven chemicals tested

- longevity [2]: highest longevity
- volatility [2]: lowest volatility
Structure (SMILES): CC(=O)c1ccc2ccccc2c1 [2′-acetonaphthone]
- feeding activity after 8 days exposure (C. formosanus workers): negligible
- worker distribution (C. formosanus workers): workers avoided the treated side
- Percent survival ([1]; filter paper 1 mg/l, Day 1, Soldier): 84.17 ± 9.26 a %
- Percent survival ([1]; filter paper 1 mg/l, Day 1, Worker): 87.67 ± 5.83 a %
- Percent survival ([1]; filter paper 1 mg/l, Day 5, Soldier): 58.33 ± 10.14 a %
- Percent survival ([1]; filter paper 1 mg/l, Day 5, Worker): 73.0 ± 8.24 a %
- Percent survival ([1]; filter paper 1 mg/l, Day 10, Soldier): 60.83 ± 13.07 a %
- Percent survival ([1]; filter paper 1 mg/l, Day 10, Worker): 55.67 ± 8.98 a %
- Percent survival ([1]; filter paper 10 mg/l, Day 1, Soldier): 80.0 ± 9.49 a %
- Percent survival ([1]; filter paper 10 mg/l, Day 1, Worker): 84.0 ± 4.95 a %
- Percent survival ([1]; filter paper 10 mg/l, Day 5, Soldier): 56.67 ± 12.49 a %
- Percent survival ([1]; filter paper 10 mg/l, Day 5, Worker): 66.67 ± 9.71 ab %
- Percent survival ([1]; filter paper 10 mg/l, Day 10, Soldier): 50.0 ± 12.91 a %
- Percent survival ([1]; filter paper 10 mg/l, Day 10, Worker): 53.67 ± 12.92 a %
- Percent survival ([1]; filter paper 50 mg/l, Day 1, Soldier): 72.50 ± 11.46 a %
- Percent survival ([1]; filter paper 50 mg/l, Day 1, Worker): 80.33 ± 9.76 a %
- Percent survival ([1]; filter paper 50 mg/l, Day 5, Soldier): 42.50 ± 9.56 a %
- Percent survival ([1]; filter paper 50 mg/l, Day 5, Worker): 68.33 ± 11.56 ab %
- Percent survival ([1]; filter paper 50 mg/l, Day 10, Soldier): 35.83 ± 8.41 a %
- Percent survival ([1]; filter paper 50 mg/l, Day 10, Worker): 55.0 ± 12.07 a %
- Percent survival ([1]; filter paper 100 mg/l, Day 1, Soldier): 73.33 ± 5.87 a %
- Percent survival ([1]; filter paper 100 mg/l, Day 1, Worker): 80.0 ± 6.68 a %
- Percent survival ([1]; filter paper 100 mg/l, Day 5, Soldier): 33.33 ± 11.53 a %
- Percent survival ([1]; filter paper 100 mg/l, Day 5, Worker): 48.33 ± 10.33 b %
- Percent survival ([1]; filter paper 100 mg/l, Day 10, Soldier): 17.50 ± 5.74 b %
- Percent survival ([1]; filter paper 100 mg/l, Day 10, Worker): 40.67 ± 9.98 a %
- Percent survival ([1]; filter paper 500 mg/l, Day 1, Soldier): 14.17 ± 5.23 b %
- Percent survival ([1]; filter paper 500 mg/l, Day 1, Worker): 18.33 ± 6.60 b %
- Percent survival ([1]; filter paper 500 mg/l, Day 5, Soldier): 0.0 ± 0.0 b %
- Percent survival ([1]; filter paper 500 mg/l, Day 5, Worker): 0.0 ± 0.0 c %
- Percent survival ([1]; filter paper 500 mg/l, Day 10, Soldier): 0.0 ± 0.0 c %
- Percent survival ([1]; filter paper 500 mg/l, Day 10, Worker): 0.0 ± 0.0 b %
- Percent survival ([1]; filter paper 1000 mg/l, Day 1, Soldier): 1.67 ± 1.67 b %
- Percent survival ([1]; filter paper 1000 mg/l, Day 1, Worker): 6.67 ± 6.67 b %
- Percent survival ([1]; filter paper 1000 mg/l, Day 5, Soldier): 0.0 ± 0.0 b %
- Percent survival ([1]; filter paper 1000 mg/l, Day 5, Worker): 0.0 ± 0.0 c %
- Percent survival ([1]; filter paper 1000 mg/l, Day 10, Soldier): 0.0 ± 0.0 c %
- Percent survival ([1]; filter paper 1000 mg/l, Day 10, Worker): 0.0 ± 0.0 b %
- concentration acutely toxic when applied to a sole food source ([1]; sole food source): 0.1 % (wt/v)
- concentration at which termites showed decreased survival ([1]; sole food source impregnated (filter paper or wood slice)): 1000 mg/L
